Experimental data published in US6348464B1, “Pyrrolecarbonylimino derivatives as naaladase inhibitors” (Guilford Pharmaceuticals, Inc., priority 1999, dated 2002).
Counter-ions that a name gives are not always drawn. Like-named read-outs stand apart in the source and are kept apart here.

How the values were obtained:
cortical cell cultures = experiment: In vitro assay on ischemia (potassium cyanide and 2-deoxyglucose insult); assay type: cell-based; settings: 1 h, read-out: EC50, concentration required to cause a 50% reduction in glutamate toxicity following an ischemic insult
Experimental: To examine the in vitro effect of the compounds of formula I on ischemia, cortical cell cultures were treated with various compounds of formula I during an ischemic insult utilizing potassium cyanide and 2-deoxyglucose, and for one hour thereafter (for experimental details, see Vornov et al., J. Neurochem., Vol. 65, No. 4, pp. 1681-1691 (1995)). Neuroprotective effect is expressed as EC50, the concentration of the compound which is required to cause a 50% reduction in glutamate toxicity following an ischemic insult.

NAALADase = biological target: T1, NAALADase (Homo sapiens, UniProt Q04609); experiment: In vitro inhibition of NAALADase activity; assay type: biochemical; settings: 3-H-NAAG substrate, 37° C.; read-out: K1 (nM), in vitro inhibition of NAALADase activity
T1 construct: from tissue
T1 sequence (Q04609 whole entry): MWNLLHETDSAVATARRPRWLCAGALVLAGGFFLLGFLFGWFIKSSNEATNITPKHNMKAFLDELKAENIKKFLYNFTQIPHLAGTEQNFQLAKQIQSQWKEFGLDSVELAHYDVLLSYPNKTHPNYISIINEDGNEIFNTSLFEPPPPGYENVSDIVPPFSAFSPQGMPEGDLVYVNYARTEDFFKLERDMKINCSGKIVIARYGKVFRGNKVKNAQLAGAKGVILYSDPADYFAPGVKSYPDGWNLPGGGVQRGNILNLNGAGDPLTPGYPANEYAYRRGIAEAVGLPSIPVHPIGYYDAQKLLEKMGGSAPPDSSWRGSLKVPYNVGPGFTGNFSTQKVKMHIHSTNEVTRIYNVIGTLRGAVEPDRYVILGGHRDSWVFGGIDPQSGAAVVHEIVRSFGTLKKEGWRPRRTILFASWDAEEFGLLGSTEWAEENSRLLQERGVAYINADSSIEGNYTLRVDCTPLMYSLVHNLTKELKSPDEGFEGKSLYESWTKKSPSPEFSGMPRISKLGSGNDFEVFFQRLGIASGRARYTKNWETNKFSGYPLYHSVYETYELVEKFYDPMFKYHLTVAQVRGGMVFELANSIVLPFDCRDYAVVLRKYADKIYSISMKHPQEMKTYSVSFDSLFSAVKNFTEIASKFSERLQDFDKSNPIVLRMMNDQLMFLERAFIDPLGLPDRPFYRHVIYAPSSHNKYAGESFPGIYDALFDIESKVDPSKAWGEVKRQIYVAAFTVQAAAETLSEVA
Experimental: Protocol For Assaying In Vitro Inhibition of NAALADase Activity
The following were combined in each assay tube: 100 μL of 10 mM CoCl2, 250 μL of 200 mM Tris chloride, 100 μL tissue, 100 μL of 10 mM NAALADase inhibitor in Bakers H2O, and Bakers H2O to make a total volume of 950 μL. Each tube was then incubated for 10 minutes in a 37° C. water bath. 50 μL of 3-H-NAAG was then added to each assay tube and incubated for an additional 15 minutes in a 37° C. water bath. The assay was stopped by adding 1.0 ml of 0.1 M sodium phosphate.
Glutamate released by the action of the NAALADase enzyme was separated from the assay solution using an anion exchange resin. The resin was equilibrated to 25° C., 2.0 ml of the resin was added to a Pasteur pipette pre-loaded with a single glass bead, and each column was washed twice with distilled H2O. A column was placed over a scintillation vial and 200 μL of an assay sample was loaded onto the column. After draining, glutamate was eluted using two 1.0 ml washes of 1 M formic acid. After addition of 10 ml of scintillation cocktail, each sample was counted for 2 minutes on a scintillation counter.

SMILES | EC50 (cortical cell cultures; cortical cell cultures, treated during potassium cyanide and 2-deoxyglucose insult and for one hour thereafter) [nM] | Ki (NAALADase) [nM] | EC50 (cortical cell cultures) [nM]
O=C(Nc1ccc(S(=O)(=O)O)c2cc(S(=O)(=O)O)cc(S(=O)(=O)O)c12)c1cccc([N+](=O)[O-])c1 [8-(3-nitrobenzamido)-1,3,5-naphthalenetrisulfonic acid] | > 1000 | 20200 | 
Cc1ccc(C(=O)Nc2ccc(S(=O)(=O)O)c3cc(S(=O)(=O)O)cc(S(=O)(=O)O)c23)cc1NC(=O)c1cccc(NC(=O)Nc2cccc(C(=O)Nc3cc(C(=O)Nc4ccc(S(=O)(=O)O)c5cc(S(=O)(=O)O)cc(S(=O)(=O)O)c45)ccc3C)c2)c1 [Suramin, sodium salt, 8,8′-[carbonylbis[imino-3,1-phenylenecarbonylimino (4-methyl-3,1-phenylene)carbonylimino]]bis-1,3,5-naphthalenetrisulfonic acid hexasodium salt] |  | 527 | 24.7
